# Test results published in US11000485B2, “Substituted hydroxystilbenes as AhR and Nrf2 modulators and their therapeutic applications” (Resolvex Pharmaceuticals Inc., priority 2017, dated 2021).
# pIC50: −log10 of the molar value.
# Key:
# [1] = tested on: Jurkat cells; experiment: Cell viability (MTS); format: cell-based; conditions: 48 hours
# Method: (§1) Cells were cultured in RPMI-1640 containing 10% FBS (Jurkat and THP-1) or DMEM containing 10% FBS (A549 and MDA-MB-435). On Day 1, 1-5×10^4 cells per well in 100 μL of the cell culture medium containing 0.5% FBS were seeded into a 96-well flat bottom plate. On Day 2, the test compounds were added to the culture at different concentrations in triplicates. The controls include triplicates of no compound treatment and cell culture medium without cells. The cells were incubated at 5% CO2, 37° C. for 48 hours. On Day 4, MTS reagent was added to each well and incubated at 37° C. for 4 hours. The absorbance was read at 490 nm. The percentage of inhibition was calculated using the formula: [1-(experiment reading-background reading)/(negative control reading-background reading)]×100.
# [2] = tested on: MDA-MB-435 cells; experiment: Cell viability (MTS); format: cell-based; conditions: 48 hours
# Method: as §1
# [3] = tested on: THP1 cells; experiment: Cell viability (MTS); format: cell-based; conditions: 48 hours
# Method: as §1
# [4] = target: T1, recombinant human PDE4B1 enzyme (Homo sapiens, UniProt Q07343); experiment: PDE4B1 radiometric enzyme assay; format: biochemical; conditions: 1 μM cAMP
# T1 construct: host or cells: baculoviral system
# T1 sequence (Q07343 whole entry): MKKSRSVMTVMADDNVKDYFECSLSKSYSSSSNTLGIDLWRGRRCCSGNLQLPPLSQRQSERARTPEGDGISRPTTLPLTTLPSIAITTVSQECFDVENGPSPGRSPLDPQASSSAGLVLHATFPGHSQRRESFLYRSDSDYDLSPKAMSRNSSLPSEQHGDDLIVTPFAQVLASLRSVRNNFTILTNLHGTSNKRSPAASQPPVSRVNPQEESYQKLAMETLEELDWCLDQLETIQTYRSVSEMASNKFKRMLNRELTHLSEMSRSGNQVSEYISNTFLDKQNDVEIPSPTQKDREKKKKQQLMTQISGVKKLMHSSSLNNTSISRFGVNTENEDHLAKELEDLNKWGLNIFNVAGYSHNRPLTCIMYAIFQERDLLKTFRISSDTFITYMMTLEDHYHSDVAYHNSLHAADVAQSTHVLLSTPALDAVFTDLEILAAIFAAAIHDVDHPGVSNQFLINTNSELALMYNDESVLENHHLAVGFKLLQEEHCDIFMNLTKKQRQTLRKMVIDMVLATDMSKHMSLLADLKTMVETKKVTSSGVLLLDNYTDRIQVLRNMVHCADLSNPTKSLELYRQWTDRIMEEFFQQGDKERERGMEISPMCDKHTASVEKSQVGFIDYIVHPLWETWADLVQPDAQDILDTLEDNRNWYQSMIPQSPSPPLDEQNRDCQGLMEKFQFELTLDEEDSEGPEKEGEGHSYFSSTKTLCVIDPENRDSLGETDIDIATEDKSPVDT
# Method: Assays were performed using recombinant human PDE4B1 enzyme expressed in a baculoviral system. […] The reactions were performed at 1 μM of cAMP. The test articles were each tested at 0.2 μM and 20 μM in triplicates.
# [5] = tested on: Jurkat cells; experiment: Cell proliferation ([3H]-thymidine); format: cell-based; conditions: 48 hours, read-out: Anti-proliferation IC50, Jurkat
# Method: (§2) Cells were cultured in RPMI-1640 containing 10% FBS (Jurkat) or DMEM containing 10% FBS (MDA-MB-435). On Day 1, 1×10^4 cells were seeded into one well of a 96-well white ISOPLATE™ with 0.5% FBS. The cells were cultured at 5% CO2, 37° C. overnight. On Day 2, the diluted test compounds were added into each well in a total volume of 100 μL of cell culture medium. For each cell line were set up three wells containing cells and only diluted DMSO as a negative (vehicle) control, and three wells without cells but containing the same volume and type of cell culture medium as background control. The cells were incubated at 5% CO2, 37° C. for 24 hours. On Day 3, 1 μL of [^3H]-thymidine was added into each well and incubation at 5% CO2, 37° C. was continued for another 24 hours. On Day 4, 30 μL of 50% TCA was added into each well and was incubated at 4° C. for 4 hours. Plates were washed with ddH2O four times and then air dried for 30 minutes followed by the addition of 100 μL of scintillation fluid into each well. The radioactivity was read using MICROBETA TRILUX™. The percentage of inhibition was calculated using the formula [1-(experiment reading-background reading)/(negative control reading-background reading)]×100.
# [6] = tested on: MDA-MB-435 cells; experiment: Cell proliferation ([3H]-thymidine); format: cell-based; conditions: 48 hours, read-out: Anti-proliferation IC50, MDA-MB-435
# Method: as §2
SMILES,pIC50 [1],pIC50 [2],pIC50 [3],Inhibitory activity on PDE4B1 enzyme ([4]; 0.2 μM compound),pIC50 [5],pIC50 [6],Inhibitory activity on PDE4B1 enzyme ([4]; 20 μM compound)
N#Cc1ccc(/C=C/c2ccc(C3CC3)c(O)c2)cc1C#N [Compound 18],5.48,5.90,5.62,,,,
Oc1cc(/C=C/c2ccc(F)cc2)ccc1C1CCCC1 [Compound 20],,,,+ (“+” is 15-30% inhibition),,,+++ (“+++” is greater than 50% inhibition)
Oc1cc(/C=C/c2ccc(F)cc2F)ccc1C1CCCC1 [Compound 21],5.43,5.71,5.16,,6.16,5.75,

# Now from value to compound, other results behind:
pIC50 [1],pIC50 [2],pIC50 [3],Inhibitory activity on PDE4B1 enzyme ([4]; 0.2 μM compound),pIC50 [5],pIC50 [6],SMILES,Inhibitory activity on PDE4B1 enzyme ([4]; 20 μM compound)
5.53,5.76,5.61,,,,Oc1cc(/C=C/c2c(F)cccc2F)ccc1C1CCCC1 [Compound 22],
5.58,6.41,5.14,,,,Oc1cc(/C=C/c2ccc(F)cc2)ccc1C1CCCCC1 [Compound 24],
,,,+ (“+” is 15-30% inhibition),,,Oc1cc(/C=C/c2ccc(F)cc2)ccc1C1CCCCCC1 [Compound 27],+++ (“+++” is greater than 50% inhibition)
